# Measurements reported in patent US20260125375A1 (Pfizer Inc., priority 2022, published 2026).
# Tests used:
# CBL-B (residues 36-427) = target: T1, CBL-B (residues 36-427) (Homo sapiens, UniProt Q13191); experiment: Ligand Displacement Assay (LDA), HTRF competitive binding against BODIPY-labeled fluorescent tracer, CBL-B; conditions: geometric mean of the number of tests, read-out: CBL-B Ki (nM) GMean
# T1 construct: Purified CBL-B (residues 36-427) and C-CBL (residues 46-435) proteins from baculovirus-infected insect cells; made in house; host or cells: baculovirus-infected insect cells
# From the text: (§1) Ligand Displacement Assay (LDA)
# (§2) The purpose of the homogeneous time-resolved fluorescence energy transfer (HTRF) ligand displacement assay is to determine whether the compounds of the disclosure are competitive with a BODIPY-labeled compound; “fluorescent tracer” aka [6-cyclopropyl-5-(17-{5-[(3,5-dimethyl-2H-pyrrol-2-ylidene-KN)methyl]-1H-pyrrol-2-yl-κN}-15-oxo-5,8,11-trioxa-2,14-diazaheptadecan-1-yl)-N-(3-{3-[(4-methyl-4H-1,2,4-triazol-3-yl)methyl]oxetan-3-yl}phenyl)pyridine-2-carboxamidato](difluorido)boron and to assess CBL-B binding selectivity over C-CBL. The synthesis of this fluorescent tracer compound is described below.
# (§3) Purified CBL-B (residues 36-427) and C-CBL (residues 46-435) proteins from baculovirus-infected insect cells were biotin labeled on their amino-terminal AviTag™ epitopes by the E. coli biotin ligase BirA to bind terbium-labeled streptavidin (SA-Tb). After optimizing the assays and determining KD values for the fluorescent tracer to CBL-B and C-CBL, compounds were tested using three-fold serial dilutions in duplicate from a top concentration of […] with a final DMSO concentration of 2%. […] The Ki (nM) values reported are the geometric means (GMean) of the number of tests conducted.
# C-CBL (46-435) = target: T2, C-CBL (46-435) (Homo sapiens, UniProt P22681); experiment: Surface Plasmon Resonance (SPR) assay, binding affinity and kinetics, C-CBL; conditions: SPR at 10° C., biotinylated C-CBL (46-435) on streptavidin chip; geometric mean; read-out: C-CBL SPR Kd (nM) GMean
# T2 construct: N-terminal biotinylated WT CBL-B (36-427) and C-CBL (46-435) were captured on a streptavidin (SA) coated sensor chip
# T2 sequence (P22681 46-435): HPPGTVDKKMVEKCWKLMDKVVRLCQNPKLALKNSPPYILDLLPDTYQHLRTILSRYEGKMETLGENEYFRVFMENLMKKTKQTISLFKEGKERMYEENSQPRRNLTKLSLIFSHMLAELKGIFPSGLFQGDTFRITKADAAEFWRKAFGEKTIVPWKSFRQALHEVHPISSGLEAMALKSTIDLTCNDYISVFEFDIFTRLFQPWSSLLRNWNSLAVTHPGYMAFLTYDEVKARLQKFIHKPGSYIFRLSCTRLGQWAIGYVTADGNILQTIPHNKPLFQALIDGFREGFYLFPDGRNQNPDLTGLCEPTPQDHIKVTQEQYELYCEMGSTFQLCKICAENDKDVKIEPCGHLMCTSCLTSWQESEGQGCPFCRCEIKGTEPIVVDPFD
# Description: (§4) Surface Plasmon Resonance (SPR) Assay
# (§5) The purpose of the SPR assay is to evaluate the binding affinity and kinetics of the compound of disclosure binding to CBL-B and C-CBL.
# (§6) The binding affinity and kinetics of compound binding to CBL-B and C-CBL were measured by Surface Plasmon Resonance (SPR) using either Biacore S200, 8K or 8K+ (Cytiva, Marlborough, MA) instruments. N-terminal biotinylated WT CBL-B (36-427) and C-CBL (46-435) were captured on a streptavidin (SA) coated sensor chip to achieve approximately 5000 to 6000 RUs of surface density. Un-functionalized SA surfaces with no immobilized protein served as reference for binding kinetic analysis. All the samples were prepared in buffer consisting of 10 mM HEPES, 150 mM NaCl, 0.05% Tween-20, 5% glycerol, […], 2% DMSO, pH 7.2. The same buffer was used as the running buffer during the experiments. Compound binding kinetics were measured in either multi-cycle or single-cycle kinetic format.
# (§7) Multi-cycle kinetic analysis (MCK): A two-fold, 10-point serial dilution of test compounds was set-up in a 96-well microplate (Greiner; Cat #650101) with a top concentration of either 10 μM or 100 μM. Binding kinetics was measured at 10° C. by injecting serial dilution of compounds onto both reference and CBL immobilized channels at a flow rate of 100 μL/min and association time of 90 seconds. Compound dissociation was monitored for >400 seconds during each cycle. No additional regeneration was used. DMSO calibration curve was obtained before and after compound analysis by injecting 0-4% of DMSO in assay buffer. A suitable compound with known affinity and kinetics was tested once in every experiment as a positive control to assess activity of the captured proteins on the surface.
# (§8) Single-cycle kinetic analysis (SCK): A 3-fold, 6-point serial dilution of compounds was set-up in a deep 96-well microplate (Greiner Bio; Cat #780201) with the highest concentration of 1 μM (concentration range: […]). Binding kinetics was measured at 10° C. by injecting serial dilutions of compounds in increasing order onto reference as well as CBL immobilized channels at a flow rate of 100 μL/min and association time of 120 seconds. Compound dissociation was monitored for >5400 seconds. Two buffer blanks were also run in a single-cycle kinetics format before the compound run for double referencing. No additional regeneration was used. DMSO calibration curve was obtained before and after compound analysis by injecting 0-4% of DMSO in the assay buffer. A suitable compound with known affinity and kinetics was tested once in every experiment as a positive control to assess activity of the captured proteins on the surface.
# C-CBL (residues 46-435) = target: T3, C-CBL (residues 46-435) (Homo sapiens, UniProt P22681); experiment: Ligand Displacement Assay (LDA), HTRF competitive binding against BODIPY-labeled fluorescent tracer, C-CBL; conditions: geometric mean of the number of tests, read-out: C-CBL Ki (nM) GMean
# T3 construct: Purified CBL-B (residues 36-427) and C-CBL (residues 46-435) proteins from baculovirus-infected insect cells; made in house; host or cells: baculovirus-infected insect cells
# T3 sequence (P22681 46-435): T2 sequence (P22681 46-435)
# From the text: as §1, §2, §3
# WT CBL-B (36-427) = target: T4, WT CBL-B (36-427) (Homo sapiens, UniProt Q13191); experiment: Surface Plasmon Resonance (SPR) assay, binding affinity and kinetics, CBL-B; conditions: SPR at 10° C., biotinylated WT CBL-B (36-427) on streptavidin chip; geometric mean; read-out: CBL-B SPR Kd (nM) GMean
# T4 construct: N-terminal biotinylated WT CBL-B (36-427) and C-CBL (46-435) were captured on a streptavidin (SA) coated sensor chip
# Description: as §4, §5, §6, §7, §8
Compound,Ki (CBL-B (residues 36-427)) [nM],Kd (C-CBL (46-435)) [nM],Ki (C-CBL (residues 46-435)) [nM],Kd (WT CBL-B (36-427)) [nM]
"Cn1cnnc1[C@@H](c1cccc(-c2n[nH]c3c(CN4C[C@@H](F)[C@@H](F)C4)nc(C(F)(F)F)cc23)c1)C1CCC1 [Example C107, 3-{3-[(R)-cyclobutyl(4-methyl-4H-1,2,4-triazol-3-yl)methyl]phenyl}-7-{[(3R,4S)-3,4-difluoropyrrolidin-1-yl]methyl}-5-(trifluoromethyl)-1H-pyrazolo[3,4-c]pyridine]",33.9,158,363,3.7
"Cn1cnnc1[C@@H](c1cccc(-c2n[nH]c3c(CN[C@H]4CCC[C@H]4O)nc(C(F)(F)F)cc23)c1)C1CCC1 [Example C122, (1R,2S)-2-({[3-{3-[(R)-cyclobutyl(4-methyl-4H-1,2,4-triazol-3-yl)methyl]phenyl}-5-(trifluoromethyl)-1H-pyrazolo[3,4-c]pyridin-7-yl]methyl}amino)cyclopentan-1-ol]",29.2,146,294,5.5
"COc1nc(C(F)(F)F)cc2c(-c3cccc(C4(Cc5nncn5C)COC4)c3)n[nH]c12 [Example J10, 7-methoxy-3-(3-{3-[(4-methyl-4H-1,2,4-triazol-3-yl)methyl]oxetan-3-yl}phenyl)-5-(trifluoromethyl)-1H-pyrazolo[3,4-c]pyridine]",25.1,178,91.9,21.4
"C[C@H](c1nc(C(F)(F)F)cc2c(-c3cccc(C4(Cc5nncn5C)COC4)c3)n[nH]c12)N1CC(F)C1 (single isomer, unassigned) [Example D44]",15.6,74,47.4,5.9
"C[C@@H](c1nc(C(F)(F)F)cc2c(-c3cccc(C4(Cc5nncn5C)COC4)c3)n[nH]c12)N1CCNC(=O)C1 (single isomer, unassigned) [Example D51]",5.7,15,19.6,2.7
Cn1cnnc1[C@@H](c1cccc(-c2n[nH]c3c(CN4CCC4)nc(C(F)(F)F)cc23)c1)C1CCC1 [Example D83],27.7,177,198,7.6
"CNc1nc2[nH]nc(-c3cccc([C@H](c4nncn4C)C4CCC4)c3)c2cc1C(F)(F)F [E2, 3-{3-[(R)-cyclobutyl(4-methyl-4H-1,2,4-triazol-3-yl)methyl]phenyl}-N-methyl-5-(trifluoromethyl)-1H-pyrazolo[3,4-b]pyridin-6-amine]",244,1730,2650,53.9
"C[C@H](CO)c1nc(C(F)(F)F)cc2c(-c3cccc([C@H](c4nncn4C)C4CCC4)c3)n[nH]c12 (single isomer, unassigned) [Example K3, (2ξ)-2-[3-{3-[(ξ)-cyclobutyl(4-methyl-4H-1,2,4-triazol-3-yl)methyl]phenyl}-5-(trifluoromethyl)-1H-pyrazolo[3,4-c]pyridin-7-yl]propan-1-ol]",11,160,96.5,4
"Cn1cnnc1[C@@H](c1cccc(-c2n[nH]c3cnc(Cl)cc23)c1)C1CCC1 [Example A3, 5-chloro-3-{3-[(R)-cyclobutyl(4-methyl-4H-1,2,4-triazol-3-yl)methyl]phenyl}-1H-pyrazolo[3,4-c]pyridine]",31.1,301,362,12.9
"C[C@@H](c1nc(C(F)(F)F)cc2c(-c3cccc(C4(Cc5nncn5C)COC4)c3)n[nH]c12)N1CCCC1 (single isomer, unassigned) [Example D47]",36.9,193,162,16.3
"CC(C)NC(C)c1nc(C(F)(F)F)cc2c(-c3cccc(C4(Cc5nncn5C)COC4)c3)n[nH]c12 (single isomer, unassigned) [Example C79, N-{(1ξ)-1-[3-(3-{3-[(4-methyl-4H-1,2,4-triazol-3-yl)methyl]oxetan-3-yl}phenyl)-5-(trifluoromethyl)-1H-pyrazolo[3,4-c]pyridin-7-yl]ethyl}propan-2-amine]",20.4,121,94.1,3.2
"CN1CC[C@H](Oc2nc(C(F)(F)F)cc3c(-c4cccc(C5(Cc6nncn6C)COC5)c4)n[nH]c23)C1 [Example J1, 7-{[(3S)-1-methylpyrrolidin-3-yl]oxy}-3-(3-{3-[(4-methyl-4H-1,2,4-triazol-3-yl)methyl]oxetan-3-yl}phenyl)-5-(trifluoromethyl)-1H-pyrazolo[3,4-c]pyridine]",13.5,36.7,58.1,4.3
CC(C)NCc1nc(C(F)(F)F)cc2c(-c3cccc([C@H](c4nncn4C)C4CCC4)c3)n[nH]c12 [Example D80],23,306,181,9.5
"Cn1cnnc1CC1(c2cccc(-c3n[nH]c4c(OCCN)nc(C(F)(F)F)cc34)c2)COC1 [Example J3, 2-{[3-(3-{3-[(4-methyl-4H-1,2,4-triazol-3-yl)methyl]oxetan-3-yl}phenyl)-5-(trifluoromethyl)-1H-pyrazolo[3,4-c]pyridin-7-yl]oxy}ethan-1-amine]",16.7,53.6,76.3,3.2
"C[C@@H](N[C@H]1COC[C@H]1O)c1nc(C(F)(F)F)cc2c(-c3cccc([C@H](c4nncn4C)C4CCC4)c3)n[nH]c12 (single isomer, unassigned) [Example D58]",14.3,–,173,–
"C[C@H](N[C@H]1COC[C@H]1O)c1nc(C(F)(F)F)cc2c(-c3cccc([C@H](c4nncn4C)C4CCC4)c3)n[nH]c12 (single isomer, unassigned) [Example D61]",22,–,145,–
"CC(NC[C@H](C)O)c1nccc2c(-c3cccc([C@H](c4nncn4C)C4CCC4)c3)n[nH]c12 (single isomer, unassigned) [Example C125]",12.2,–,147,–
